Laboratory results reported in PMC6128854 (Scientific Reports, 2018).

Tested on: high voltage-activated (HVA) calcium channel currents in rat DRG neurons
Assay type: cell-based

In the case of ω-agatoxin, the “further inhibition of the residual Ba2+ currents” value is reported as 20%.
